Results as given in patent US20240228459A1 (Boundless Bio, Inc., priority 2022, published 2024).

How the values were obtained:
[1] = biological target: PLK1 (Homo sapiens, UniProt P53350); test: PLK1 activity (known assay); assay type: biochemical
Procedure: (§1) The Wee1 pCDK1 and PLK1 activities were determined using known assays.

[2] = biological target: Wee1 (Homo sapiens, UniProt P30291); test: Wee1 pCDK1 activity (known assay); assay type: cell-based
Procedure: as §1

Sequence of PLK1 (P53350 whole entry, species assumed): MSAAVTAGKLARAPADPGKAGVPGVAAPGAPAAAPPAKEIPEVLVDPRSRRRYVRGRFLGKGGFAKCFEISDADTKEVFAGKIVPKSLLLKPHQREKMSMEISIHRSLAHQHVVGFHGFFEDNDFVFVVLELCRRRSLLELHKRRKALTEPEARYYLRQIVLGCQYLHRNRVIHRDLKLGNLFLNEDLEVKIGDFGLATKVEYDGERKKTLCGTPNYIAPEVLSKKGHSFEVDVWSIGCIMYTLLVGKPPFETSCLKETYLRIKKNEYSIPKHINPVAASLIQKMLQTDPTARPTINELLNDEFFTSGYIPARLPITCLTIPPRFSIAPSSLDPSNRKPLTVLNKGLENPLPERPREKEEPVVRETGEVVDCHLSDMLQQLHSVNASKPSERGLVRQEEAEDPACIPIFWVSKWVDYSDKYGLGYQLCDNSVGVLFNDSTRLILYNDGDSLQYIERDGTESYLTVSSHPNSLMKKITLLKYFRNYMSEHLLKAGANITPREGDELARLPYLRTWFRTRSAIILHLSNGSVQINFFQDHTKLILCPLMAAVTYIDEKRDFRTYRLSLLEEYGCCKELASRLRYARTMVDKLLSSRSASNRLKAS
Sequence of Wee1 (P30291 whole entry, species assumed): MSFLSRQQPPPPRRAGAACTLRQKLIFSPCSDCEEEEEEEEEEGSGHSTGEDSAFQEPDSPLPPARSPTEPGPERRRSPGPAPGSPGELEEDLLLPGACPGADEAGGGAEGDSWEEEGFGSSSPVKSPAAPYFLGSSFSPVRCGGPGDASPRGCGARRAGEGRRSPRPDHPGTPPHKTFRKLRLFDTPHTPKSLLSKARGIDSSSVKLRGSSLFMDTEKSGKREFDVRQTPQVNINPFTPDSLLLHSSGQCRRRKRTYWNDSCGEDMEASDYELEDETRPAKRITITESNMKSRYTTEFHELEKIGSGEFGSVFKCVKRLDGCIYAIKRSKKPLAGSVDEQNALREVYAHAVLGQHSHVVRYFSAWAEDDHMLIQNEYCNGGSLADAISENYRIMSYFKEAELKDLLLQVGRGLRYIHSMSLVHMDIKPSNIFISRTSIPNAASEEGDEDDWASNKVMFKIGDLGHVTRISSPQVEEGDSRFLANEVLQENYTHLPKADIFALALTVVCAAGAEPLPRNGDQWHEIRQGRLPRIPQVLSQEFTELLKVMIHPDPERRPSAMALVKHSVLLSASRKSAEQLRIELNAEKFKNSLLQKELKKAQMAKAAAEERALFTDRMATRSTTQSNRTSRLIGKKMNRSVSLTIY

SMILES | IC50 [1] | IC50 [2]
CCC1(O)CCc2ccc(Nc3nc(Nc4ccc(N5CCN(C)CC5C)cc4)ncc3C#N)nc21 (centres unmarked) [Example 51, 2-[4-(2,4-dimethylpiperazin-1-yl)anilino]-4-[(7-ethyl-7-hydroxy-5,6-dihydrocyclopenta[b]pyridin-2-yl)amino]pyrimidine-5-carbonitrile] | 250 to 500 nM | 100 to 250 nM
CCC1(O)CCc2ccc(Nc3nc(Nc4ccc5c(c4)CCN(C)C5(C)C)ncc3C#N)nc21 (single isomer, unassigned) [Example 27] | > 1000 nM | ≤ 100 nM
CCC1(O)CCc2ccc(Nc3nc(Nc4cc(C)c(C5CCN(C)CC5)c(F)c4)ncc3C#N)nc21 (centres unmarked) [Example 41, 4-[(7-ethyl-7-hydroxy-5,6-dihydrocyclopenta[b]pyridin-2-yl)amino]-2-[3-fluoro-5-methyl-4-(1-methyl-4-piperidyl)anilino]pyrimidine-5-carbonitrile] | 250 to 500 nM | 100 to 250 nM
CCC1(O)CCc2ccc(Nc3nc(Nc4ccc(C5CCN(C)CC5)c(F)c4)ncc3C#N)nc21 (centres unmarked) [Example 43, 4-[(7-ethyl-7-hydroxy-5,6-dihydrocyclopenta[b]pyridin-2-yl)amino]-2-[3-fluoro-4-(1-methyl-4-piperidyl)anilino]pyrimidine-5-carbonitrile] | 250 to 500 nM | 250 to 500 nM
CCC1(O)CCc2ccc(Nc3nc(Nc4ccc(N5CCC6(CCN(C)CC6)CC5)cc4)ncc3C#N)nc21 (centres unmarked) [Example 39, 4-[(7-ethyl-7-hydroxy-5,6-dihydrocyclopenta[b]pyridin-2-yl)amino]-2-[4-(9-methyl-3,9-diazaspiro[5.5]undecan-3-yl)anilino]pyrimidine-5-carbonitrile] | ≤ 100 nM | 100 to 250 nM
Cc1cc(Nc2ncc(C#N)c(Nc3cccc(N4CCCC4=O)n3)n2)cc2c1CCN(C)C2 [Example 75, 2-[(2,5-dimethyl-3,4-dihydro-1H-isoquinolin-7-yl)amino]-4-[[6-(2-oxopyrrolidin-1-yl)-2-pyridyl]amino]pyrimidine-5-carbonitrile] | 100 to 250 nM | ≤ 100 nM
CN1CCN(c2ccc(Nc3ncc(C#N)c(Nc4ccc5c(n4)C(C)(O)CC5)n3)cc2)CC1 (centres unmarked) [Example 8, 4-[(7-hydroxy-7-methyl-5,6-dihydrocyclopenta[b]pyridin-2-yl)amino]-2-[4-(4-methylpiperazin-1-yl)anilino]pyrimidine-5-carbonitrile] | ≤ 100 nM | 100 to 250 nM
CCC1(O)CCc2ccc(Nc3nc(Nc4ccc5c(c4)CCNC5(C)C)ncc3C#N)nc21 (centres unmarked) [Example 25, 2-[(1,1-dimethyl-3,4-dihydro-2H-isoquinolin-6-yl)amino]-4-[(7-ethyl-7-hydroxy-5,6-dihydrocyclopenta[b]pyridin-2-yl)amino]pyrimidine-5-carbonitrile] | > 1000 nM | 500 to 1000 nM
CCC1(O)CCc2ccc(Nc3nc(Nc4ccc5c(c4)CN(C)CC5(C)C)ncc3C#N)nc21 (centres unmarked) [Example 48, 4-[(7-ethyl-7-hydroxy-5,6-dihydrocyclopenta[b]pyridin-2-yl)amino]-2-[(2,4,4-trimethyl-1,3-dihydroisoquinolin-7-yl)amino]pyrimidine-5-carbonitrile] | > 1000 nM | 250 to 500 nM
CCC1(O)CCc2ccc(Nc3nc(Nc4ccc(C5CCN(C)CC5)c(C)c4)ncc3C#N)nc21 (single isomer, unassigned) [Example 21] | ≤ 100 nM | ≤ 100 nM
CCC1(O)CCc2ccc(Nc3nc(Nc4ccc(C5CCN(CCO)CC5)c(C)c4)ncc3C#N)nc21 (centres unmarked) [Example 19, 4-[(7-ethyl-7-hydroxy-5,6-dihydrocyclopenta[b]pyridin-2-yl)amino]-2-[4-[1-(2-hydroxyethyl)-4-piperidyl]-3-methyl-anilino]pyrimidine-5-carbonitrile] | ≤ 100 nM | 250 to 500 nM
CCC1(O)CCc2ccc(Nc3nc(Nc4ccc(N5CCN(C)C(C)C5)cc4)ncc3C#N)nc21 (centres unmarked) [Example 52, 2-[4-(3,4-dimethylpiperazin-1-yl)anilino]-4-[(7-ethyl-7-hydroxy-5,6-dihydrocyclopenta[b]pyridin-2-yl)amino]pyrimidine-5-carbonitrile] | ≤ 100 nM | 250 to 500 nM
CCC1(O)CCc2ccc(Nc3nc(Nc4ccc5c(c4)CCN(C)C5(C)C)ncc3C#N)nc21 (centres unmarked) [Example 26, 4-[(7-ethyl-7-hydroxy-5,6-dihydrocyclopenta[b]pyridin-2-yl)amino]-2-[(1,1,2-trimethyl-3,4-dihydroisoquinolin-6-yl)amino]pyrimidine-5-carbonitrile] | > 1000 nM | ≤ 100 nM
CCC1(O)CCc2ccc(Nc3nc(Nc4ccc5c(c4)CNCC5(C)C)ncc3C#N)nc21 (centres unmarked) [Example 30, 2-[(4,4-dimethyl-2,3-dihydro-1H-isoquinolin-7-yl)amino]-4-[(7-ethyl-7-hydroxy-5,6-dihydrocyclopenta[b]pyridin-2-yl)amino]pyrimidine-5-carbonitrile] | > 1000 nM | 250 to 500 nM
CCC1(O)CCc2ccc(Nc3nc(Nc4ccc(N5CCN(C)CC5)c(C)c4)ncc3C#N)nc21 (centres unmarked) [Example 16, 4-[(7-ethyl-7-hydroxy-5,6-dihydrocyclopenta[b]pyridin-2-yl)amino]-2-[3-methyl-4-(4-methylpiperazin-1-yl)anilino]pyrimidine-5-carbonitrile] | ≤ 100 nM | 100 to 250 nM
CCC1(O)CCc2ccc(Nc3nc(Nc4ccc5c(c4)CN(C)CC54CC4)ncc3C#N)nc21 (centres unmarked) [Example 56, 4-[(7-ethyl-7-hydroxy-5,6-dihydrocyclopenta[b]pyridin-2-yl)amino]-2-[(2-methylspiro[1,3-dihydroisoquinoline-4,1′-cyclopropane]-7-yl)amino]pyrimidine-5-carbonitrile] | 100 to 250 nM | 100 to 250 nM
CCC1(O)CCc2ccc(Nc3nc(Nc4ccc(N5CC6CCC5CN6C)cc4)ncc3C#N)nc21 (centres unmarked) [Example 24, 4-[(7-ethyl-7-hydroxy-5,6-dihydrocyclopenta[b]pyridin-2-yl)amino]-2-[4-(5-methyl-2,5-diazabicyclo[2.2.2]octan-2-yl)anilino]pyrimidine-5-carbonitrile] | ≤ 100 nM | ≤ 100 nM
C[C@H]1CN(C)CCN1c1ccc(Nc2ncc(C#N)c(Nc3cccc(N4CCCC4=O)n3)n2)cc1 [Example 65, 4-[[6-(2-oxopyrrolidin-1-yl)-2-pyridyl]amino]-2-[4-[(2S)-2,4-dimethylpiperazin-1-yl]anilino]pyrimidine-5-carbonitrile] | > 1000 nM | 100 to 250 nM
CCC1(O)CCCc2ccc(Nc3nc(Nc4ccc(N5CCN(C)CC5)cc4)ncc3C#N)nc21 (centres unmarked) [Example 1, 4-[(8-ethyl-8-hydroxy-6,7-dihydro-5H-quinolin-2-yl)amino]-2-[4-(4-methylpiperazin-1-yl)anilino]pyrimidine-5-carbonitrile] | ≤ 100 nM | 100 to 250 nM
CCC1(O)CCc2ccc(Nc3nc(Nc4ccc(C5CCN(C)CC5)c(Cl)c4)ncc3C#N)nc21 (centres unmarked) [Example 42, 2-[3-chloro-4-(1-methyl-4-piperidyl)anilino]-4-[(7-ethyl-7-hydroxy-5,6-dihydrocyclopenta[b]pyridin-2-yl)amino]pyrimidine-5-carbonitrile] | 100 to 250 nM | 250 to 500 nM
C[C@@H]1CN(C)CCN1c1ccc(Nc2ncc(C#N)c(Nc3cccc(N4CCOC4=O)n3)n2)cc1 (racemic) [Example 10, 4-[[6-(2-oxooxazolidin-3-yl)-2-pyridyl]amino]-2-[4-[rac-(2R)-2,4-dimethylpiperazin-1-yl]anilino]pyrimidine-5-carbonitrile] | > 1000 nM | 100 to 250 nM
CCC1(O)CCc2ccc(Nc3nc(Nc4ccc(N5CC6CN(C)CC6C5)cc4)ncc3C#N)nc21 (centres unmarked) [Example 34, 4-[(7-ethyl-7-hydroxy-5,6-dihydrocyclopenta[b]pyridin-2-yl)amino]-2-[4-(2-methyl-1,3,3a,4,6,6a-hexahydropyrrolo[3,4-c]pyrrol-5-yl)anilino]pyrimidine-5-carbonitrile] | ≤ 100 nM | 100 to 250 nM
CCC1(O)CCc2ccc(Nc3nc(Nc4ccc(C5CCN(C)CC5)c(COC)c4)ncc3C#N)nc21 (centres unmarked) [Example 44, 4-[(7-ethyl-7-hydroxy-5,6-dihydrocyclopenta[b]pyridin-2-yl)amino]-2-[3-(methoxymethyl)-4-(1-methyl-4-piperidyl)anilino]pyrimidine-5-carbonitrile] | 250 to 500 nM | 100 to 250 nM
COC1(C)CCc2ccc(Nc3nc(Nc4ccc(N5CCN(C)CC5)cc4)ncc3C#N)nc21 (centres unmarked) [Example 4, 4-[(7-methoxy-7-methyl-5,6-dihydrocyclopenta[b]pyridin-2-yl)amino]-2-[4-(4-methylpiperazin-1-yl)anilino]pyrimidine-5-carbonitrile] | ≤ 100 nM | 250 to 500 nM
Cc1cc(Nc2ncc(C#N)c(Nc3cccc(N4CCCC4=O)n3)n2)ccc1C1CCN(C)CC1 [Example 62, 2-[3-methyl-4-(1-methyl-4-piperidyl)anilino]-4-[[6-(2-oxopyrrolidin-1-yl)-2-pyridyl]amino]pyrimidine-5-carbonitrile] | 250 to 500 nM | ≤ 100 nM
COCc1cc(Nc2ncc(C#N)c(Nc3cccc(N4CCCC4=O)n3)n2)ccc1C1CCN(C)CC1 [Example 63, 2-[3-(methoxymethyl)-4-(1-methyl-4-piperidyl)anilino]-4-[[6-(2-oxopyrrolidin-1-yl)-2-pyridyl]amino]pyrimidine-5-carbonitrile] | > 1000 nM | 500 to 1000 nM
CCC1(O)CCc2ccc(Nc3nc(Nc4ccc(C5CCNCC5)c(C)c4)ncc3C#N)nc21 (centres unmarked) [Example 18, 4-[(7-ethyl-7-hydroxy-5,6-dihydrocyclopenta[b]pyridin-2-yl)amino]-2-[3-methyl-4-(4-piperidyl)anilino]pyrimidine-5-carbonitrile] | ≤ 100 nM | 250 to 500 nM
CN1CC2CCC(C1)N2c1ccc(Nc2ncc(C#N)c(Nc3ccc4c(n3)C(C)(O)CC4)n2)cc1 (centres unmarked) [Example 57, 4-[(7-hydroxy-7-methyl-5,6-dihydrocyclopenta[b]pyridin-2-yl)amino]-2-[4-(3-methyl-3,8-diazabicyclo[3.2.1]octan-8-yl)anilino]pyrimidine-5-carbonitrile] | > 1000 nM | 250 to 500 nM
